In US8178506B2, “Oligomeric compounds and compositions for use in modulation of small non-coding RNAs” (Regulus Therapeutics Inc., priority 2003, dated 2012):
“And” between values parts separate entries of the source, which are not always exact repeats. Equal values may be shown once. In the oligonucleotide strings, read from the 5' end, every base follows the letter of its sugar. An asterisk marks phosphorothioate; unmarked linkages are phosphodiester. Other units and linkages are bracketed, terminal groups are in braces. A string of capitals states the bases alone. e = 2'-O-(2-methoxyethyl) (MOE); [5mC] = 5-methylcytosine; d = 2'-deoxy (DNA)

Test system: HeLa cells
Assay: Cell cycle assay in HeLa cells
Type: cell-based, human
Details: for % cells aneuploid / % cells in cell cycle phase G1 / % cells in cell cycle phase G2/M / % cells in cell cycle phase S / % cells in cell cycle phase subG1 / % cells in cell cycle phase: G1 / % cells in cell cycle phase: G2/M / % cells in cell cycle phase: S / % cells in cell cycle phase: aneuploid / % cells in cell cycle phase: subG1 / % cells in cell cycle phase aneuploid: HeLa cells; for % cells in cell cycle phase: G1 / % cells in cell cycle phase: G2/M / % cells in cell cycle phase: S / % cells in cell cycle phase: aneuploid / % cells in cell cycle phase: subG1: 48 hours after treatment, relative to untreated control (UTC=100)
Experimental: In some embodiments, HeLa cells were plated on collagen-coated 24-well plates at 50,000-60,000 cells per well, and allowed to attach to wells overnight. In some embodiments, HeLa cells were synchronized by double thymidine block (cells were washed three times with PBS, then grown in 10% FBS containing 2 mM thymidine; then 19 hours later, cells were washed three times in PBS, 10% FBS for 9 hours; cells were then incubated in 10% FBS, 2 mM thymidine for 15 hours; then washed three times with PBS, 10% FBS and samples were taken every two hours over a 16 hour period). A portion of each time sample was fixed with ethanol and treated with propidium iodide and subjected to FACs analysis for determination of the percentage of cells in each phase of the cell cycle. […] HeLa cells treated with 10 μM cisplatin or 100 ng/ml nocodazole were used as controls for G1-phase and late G2/M-phases, respectively. From the remaining portion of each of these time samples, total RNA was isolated and used to assess the expression of cell cycle marker mRNAs using the real-time RT-PCR methods and/or used to screen microarrays to assess the expression of miRNAs over the course of the cell cycle. It was observed that several miRNAs are expressed in a cell-cycle-dependent manner. Shown in Table 30 are the mRNA levels of the E2F1 transcription factor and topoisomerase 2A (Top2A), which vary over the course of the cell cycle and can be used for comparison to the experimental groups for the confirmation of cell cycle phase. Data are an average of three trials.
In some embodiments, HeLa cells were also treated with oligomeric compounds targeting miRNAs. […] The medium was removed from the plates. Each well was washed in 250 μl of PBS. […] Control cells received LIPOFECTIN™ only. […] After 24 hours (Table 31) or 48 hours (Table 32), cells were prepared for flow cytometry analysis to generate a cell cycle profile. The cell cycle profile was analyzed with the ModFit program (Verity Software House, Inc., Topsham Me.).
The random-mer ISIS 29848 (SEQ ID NO: 737) was used as a negative control, and ISIS 183891 (SEQ ID NO: 847), targeting kinesin-like 1/Eg5, was included as a positive control. Data are expressed as percentage of cells in each phase relative to the untreated control (UTC); values above 100 are considered to indicate a delay or arrest in that phase of the cell cycle. […] In some cases, the same oligomeric compound was tested in repeated experiments.
In accordance with the present invention, certain oligomeric compounds targeting miRNAs were selected for dose response studies. Using the cell cycle assay described above, the cell cycle profiles of HeLa or A549 cells treated with varying concentrations of oligomeric compounds of the present invention were assessed.
HeLa cells were treated with 25-, 50-, 100- or 150 nM of the oligomeric compounds ISIS
Numbers 327902 (SEQ ID NO: 320) and 328383 (SEQ ID NO: 492), both targeted against mir-192, and ISIS 327905 (SEQ ID NO: 323), targeting mir-205, and ISIS 328403 (SEQ ID NO: 512), targeting mir-106. Cells treated with increasing concentrations of oligomeric compounds were compared to untreated cells, to assess the dose-dependency of the observed delay or arrest. The random-mer ISIS 29848 was used as a negative control. Cells were prepared for flow cytometry 48-hours after oligonucleotide treatment, as described, supra.

[1] = 150 nM oligomeric compound, 24 hours, relative to untreated control (UTC = 100)
[2] = 150 nM, 48 hours, relative to untreated control

Row | Substance | phase of the cell cycle in which cells arrest or delay (HeLa, 150 nM, 24 hours) | phase of the cell cycle in which cells arrest or delay (HeLa, 150 nM, 48 hours) | % cells aneuploid [1] | % cells in cell cycle phase G1 [1] | % cells in cell cycle phase G2/M [1] | % cells in cell cycle phase S [1] [%] | % cells in cell cycle phase subG1 [1] | % cells in cell cycle phase: G1 (150 nM oligomeric compound) | % cells in cell cycle phase: G2/M (150 nM oligomeric compound) | % cells in cell cycle phase: S (150 nM oligomeric compound) | % cells in cell cycle phase: aneuploid (150 nM oligomeric compound) | chromosome missegregation (subG1 or aneuploid DNA content) (HeLa, 150 nM, 24-hour and 48-hour timepoints) | % cells in cell cycle phase: subG1 (150 nM oligomeric compound) [%] | % cells in cell cycle phase G1 [2] [%] | % cells in cell cycle phase G2/M [2] [%] | % cells in cell cycle phase S [2] [%] | % cells in cell cycle phase aneuploid [2] [%] | % cells in cell cycle phase subG1 [2] [%]
1 | AGCCTATCCTGGATTACTTGAA (chemistry not fully specified) [ISIS 345373] | G2/M-phase | S-phase |  |  |  |  |  |  |  |  |  |  |  |  |  |  |  | 
2 | 328337 (eG*e[5mC]*eT*eA*eG*dA*dT*dA*d[5mC]*dA*dA*dA*dG*dA*dT*eG*eG*eA*eA*eA) [compound 328337] |  |  | 104% and 64% | 106% and 108% | 113% and 109% | 88 | 107% and 99% | 92% and 73% | 119% and 135% | 105% and 143% | 108% and 74% |  |  |  |  |  |  | 
3 | GGTACAATCAACGGTCGATGGT (anti-miR; chemistry not fully specified) [ISIS 327934, uniform 2′-MOE PS; targets mir-213] |  | G2/M- and S-phases |  |  |  |  |  |  |  |  |  |  |  |  |  |  |  | 
4 | ISIS 338833: SEQ ID NO: 660, targeted to hypothetical miRNA-181 (TCGTGCACCTGAGGAGTCTG; all 2'-MOE, all phosphorothioate, methylation of C not given here) |  |  |  |  |  |  |  |  |  |  |  | induce chromosome missegregation events |  |  |  |  |  | 
5 | 345373 (AGCCTATCCTGGATTACTTGAA; sugars from the 5' end e5 d10 e7, all phosphorothioate, methylation of C not given here) [compound 345373] |  |  | 68% | 66% | 176% | 94 | 196% | 75% | 145% | 132% | 119% |  | 116 |  |  |  |  | 
6 | 338678 (antisense CTGGTTGGGTATGAGACAGA; all 2'-MOE, all phosphorothioate, methylation of C not given here) [compound 338678] |  |  | 202% | 122% | 131% | 75 | 162% | 81% | 188% | 78% | 179% |  | 1158 | 103 | 105 | 94 | 132 | 129
7 | 338750 (antisense TCCGCGGGGGCGGGGAGGCT; all 2'-MOE, all phosphorothioate, methylation of C not given here) [compound 338750] |  |  | 166% | 148% | 97% | 76 | 107% | 99% | 103% | 101% | 190% |  | 201 |  |  |  |  | 
8 | 328707 (eG*e[5mC]*eA*eA*e[5mC]*dA*dG*dG*d[5mC]*d[5mC]*dT*d[5mC]*dA*dA*dT*eA*eT*e[5mC]*eT*eT) [compound 328707] |  |  | 166% | 36% | 195% | 93 | 188% | 46% | 213% | 134% | 155% |  | 1486 | 103 | 122 | 87 | 140 | 125
9 | 328749 (antisense e[5mC]*eA*eG*e[5mC]*e[5mC]*dT*dG*d[5mC]*d[5mC]*dA*d[5mC]*d[5mC]*dG*d[5mC]*d[5mC]*eG*e[5mC]*eT*eT*eT) [compound 328749] |  |  | 138% | 126% | 110% | 82 | 312% | 37% | 246% | 129% | 65% |  | 962 |  |  |  |  | 
10 | 338666 (antisense TCACGTGGAGAGGAGTTAAA; all 2'-MOE, all phosphorothioate, methylation of C not given here) [compound 338666] |  |  | 102% | 123% | 158% | 63 | 235% | 44% | 217% | 136% | 125% |  | 1832 | 92 | 130 | 98 | 151 | 214
11 | GCCAAGGCGTGACATGATAT (chemistry not given here) [ISIS 25691, 5-10-5 2′-MOE gapmer PS targeted to Drosha RNase III mRNA] |  | increased percentage of cells in S-phase as well as a significant percentage of cells in the subG1 and aneuploid categories |  |  |  |  |  |  |  |  |  |  |  |  |  |  |  | 
12 | 341788 (antisense AGCCAAGCTCAGACGGATCCGA; all 2'-MOE, all phosphorothioate, methylation of C not given here) [compound 341788] |  |  | 114% | 154% | 140% | 54 | 303% | 76% | 163% | 105% | 116% |  | 748 |  |  |  |  | 
